According to patent publication US8445457B2, “Oral pharmaceutical solutions containing telbivudine” (Novartis AG, priority 2007, dated 2013):

Test: Pre-formulation telbivudine stability versus pH at elevated temperature
Format: physicochemical
Conditions: investigated pH 2-9, 50° C., from assay and thymine content
Method: During pre-formulation, telbivudine stability is investigated within a range of pH from 2-9, at elevated temperature 50° C. […] The pH of the oral solution is a highly relevant parameter, due to the influence pH on the retardation of microbial growth in the solution during storage.

## Cc1cn([C@@H]2C[C@@H](O)[C@H](CO)O2)c(=O)[nH]c1=O [telbivudine, β-L-thymidine/2′-deoxy-L-thymidine]
  pH range optimal for drug substance stability: 3-9
